{"source": "patent US12268674B2", "about": "“Mi-2β inhibitor as an immunotherapy agent” (BioVentures, LLC, priority 2021, dated 2025)", "assay_in_all_cases": "ATPase profile (ATP acyl phosphate probe)", "assay_type_in_all_cases": "binding", "key": {"AARS": {"molecular_target": "T1, AARS (Homo sapiens, UniProt P49588)", "T1 construct": "to get the native cell lysate; host or cells: A375 cell lysate", "details": "SEQ ID NO: 1, ATP BS"}, "ABCB10": {"molecular_target": "T2, ABCB10 (Homo sapiens, UniProt Q9NRK6)", "T2 construct": "to get the native cell lysate; host or cells: A375 cell lysate", "details": "ABCB10, SEQ ID NO: 2, ATP BS"}, "ABCB7": {"molecular_target": "T3, ABCB7 (Homo sapiens, UniProt O75027)", "T3 construct": "to get the native cell lysate; host or cells: A375 cell lysate", "details": "ABCB7, SEQ ID NO: 4, ATP BS"}, "ABCC1": {"molecular_target": "T4, ABCC1 (Homo sapiens, UniProt P33527)", "T4 construct": "to get the native cell lysate; host or cells: A375 cell lysate", "T4 sequence (P33527 whole entry)": "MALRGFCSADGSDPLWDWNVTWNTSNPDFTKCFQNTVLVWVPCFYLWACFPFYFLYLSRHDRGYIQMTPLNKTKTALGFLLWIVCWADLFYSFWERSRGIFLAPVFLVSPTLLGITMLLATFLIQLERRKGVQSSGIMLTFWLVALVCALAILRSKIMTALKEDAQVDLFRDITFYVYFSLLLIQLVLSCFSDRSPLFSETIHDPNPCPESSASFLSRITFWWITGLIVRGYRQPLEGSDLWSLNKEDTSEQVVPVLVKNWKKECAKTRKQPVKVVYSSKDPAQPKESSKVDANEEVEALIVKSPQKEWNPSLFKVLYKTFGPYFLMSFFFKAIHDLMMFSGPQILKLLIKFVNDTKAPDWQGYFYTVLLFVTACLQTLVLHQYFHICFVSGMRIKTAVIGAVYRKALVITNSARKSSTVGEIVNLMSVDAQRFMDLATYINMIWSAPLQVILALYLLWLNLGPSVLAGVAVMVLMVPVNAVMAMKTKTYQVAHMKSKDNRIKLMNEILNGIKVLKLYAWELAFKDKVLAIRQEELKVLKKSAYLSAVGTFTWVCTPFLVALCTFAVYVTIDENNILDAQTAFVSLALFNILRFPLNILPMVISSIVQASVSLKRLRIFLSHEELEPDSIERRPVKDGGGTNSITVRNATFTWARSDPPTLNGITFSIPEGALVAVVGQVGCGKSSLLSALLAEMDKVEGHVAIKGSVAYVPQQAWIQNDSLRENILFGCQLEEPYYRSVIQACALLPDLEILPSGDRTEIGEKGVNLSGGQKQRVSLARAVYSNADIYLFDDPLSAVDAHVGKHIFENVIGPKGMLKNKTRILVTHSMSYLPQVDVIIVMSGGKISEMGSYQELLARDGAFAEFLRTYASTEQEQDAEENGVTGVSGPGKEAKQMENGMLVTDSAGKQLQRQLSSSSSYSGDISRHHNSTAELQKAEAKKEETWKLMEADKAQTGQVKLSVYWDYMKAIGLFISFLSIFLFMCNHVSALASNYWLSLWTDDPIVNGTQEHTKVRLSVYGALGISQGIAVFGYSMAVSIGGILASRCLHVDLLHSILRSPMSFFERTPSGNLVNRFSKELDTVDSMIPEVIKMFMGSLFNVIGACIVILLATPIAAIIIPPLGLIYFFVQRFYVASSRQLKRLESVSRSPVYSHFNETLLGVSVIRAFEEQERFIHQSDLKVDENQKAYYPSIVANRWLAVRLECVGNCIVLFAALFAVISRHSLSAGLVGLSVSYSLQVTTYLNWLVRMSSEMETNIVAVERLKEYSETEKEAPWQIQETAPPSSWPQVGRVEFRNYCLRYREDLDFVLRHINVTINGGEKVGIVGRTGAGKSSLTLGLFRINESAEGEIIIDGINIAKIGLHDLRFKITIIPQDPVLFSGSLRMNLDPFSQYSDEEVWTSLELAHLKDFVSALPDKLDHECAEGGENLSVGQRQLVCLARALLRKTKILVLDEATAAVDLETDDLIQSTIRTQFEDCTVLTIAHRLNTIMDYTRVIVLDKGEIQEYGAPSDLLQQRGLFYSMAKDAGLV"}, "ACACB": {"molecular_target": "T5, ACACB (Homo sapiens, UniProt O00763)", "T5 construct": "to get the native cell lysate; host or cells: A375 cell lysate", "details": "SEQ ID NO: 21, ATP BS"}, "AK2": {"molecular_target": "T6, AK2 (Homo sapiens, UniProt P54819)", "T6 construct": "to get the native cell lysate; host or cells: A375 cell lysate", "details": "AK2, SEQ ID NO: 33, ATP BS"}, "AK4": {"molecular_target": "T7, AK4 (Homo sapiens, UniProt P27144)", "T7 construct": "to get the native cell lysate; host or cells: A375 cell lysate", "details": "AK4, SEQ ID NO: 35, ATP BS"}, "ATIC": {"molecular_target": "T8, ATIC (Homo sapiens, UniProt P31939)", "T8 construct": "to get the native cell lysate; host or cells: A375 cell lysate", "details": "SEQ ID NO: 47, ATP BS"}, "BAT1, DDX39": {"test_system": "BAT1, DDX39", "details": "BAT1, DDX39, SEQ ID NO: 50, ATP BS"}, "DDX39": {"molecular_target": "T9, DDX39 (Homo sapiens, UniProt O00148)", "T9 construct": "endogenous in cells; host or cells: A375 cell lysate", "details": "DDX39, SEQ ID NO: 69, ATP BS"}, "ENPP1": {"molecular_target": "T10, ENPP1 (Homo sapiens, UniProt P22413)", "T10 construct": "endogenous in cells; host or cells: A375 cell lysate", "details": "ENPP1, SEQ ID NO: 76, ATP BS"}, "HSP90AA": {"molecular_target": "T11, HSP90AA (Homo sapiens, UniProt P07900)", "T11 construct": "to get the native cell lysate; endogenous in cells; host or cells: A375", "details": "SEQ ID NO: 95, ATP BS"}, "HSPA5": {"molecular_target": "T12, HSPA5 (Homo sapiens, UniProt P11021)", "T12 construct": "to get the native cell lysate; endogenous in cells; host or cells: A375", "T12 sequence (P11021 19-654)": "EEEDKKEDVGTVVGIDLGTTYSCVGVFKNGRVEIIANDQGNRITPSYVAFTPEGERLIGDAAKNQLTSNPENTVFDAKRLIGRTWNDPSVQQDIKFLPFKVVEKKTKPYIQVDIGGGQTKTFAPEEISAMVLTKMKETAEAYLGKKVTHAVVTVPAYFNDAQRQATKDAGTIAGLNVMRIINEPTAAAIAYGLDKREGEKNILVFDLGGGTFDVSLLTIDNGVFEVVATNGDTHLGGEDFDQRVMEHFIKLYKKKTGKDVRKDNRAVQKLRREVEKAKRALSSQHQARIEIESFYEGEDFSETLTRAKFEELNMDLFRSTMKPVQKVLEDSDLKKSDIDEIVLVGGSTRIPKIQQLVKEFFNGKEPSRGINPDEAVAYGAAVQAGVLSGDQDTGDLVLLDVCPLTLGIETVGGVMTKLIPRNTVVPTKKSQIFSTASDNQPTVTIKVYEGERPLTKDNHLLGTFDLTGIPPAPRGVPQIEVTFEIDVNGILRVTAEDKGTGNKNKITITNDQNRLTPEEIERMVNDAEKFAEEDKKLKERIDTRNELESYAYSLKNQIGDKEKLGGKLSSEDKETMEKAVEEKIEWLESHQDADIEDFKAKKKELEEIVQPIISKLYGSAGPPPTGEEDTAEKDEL"}, "HSPA8": {"molecular_target": "T13, HSPA8 (Homo sapiens, UniProt P11142)", "T13 construct": "to get the native cell lysate; endogenous in cells; host or cells: A375", "T13 sequence (P11142 whole entry)": "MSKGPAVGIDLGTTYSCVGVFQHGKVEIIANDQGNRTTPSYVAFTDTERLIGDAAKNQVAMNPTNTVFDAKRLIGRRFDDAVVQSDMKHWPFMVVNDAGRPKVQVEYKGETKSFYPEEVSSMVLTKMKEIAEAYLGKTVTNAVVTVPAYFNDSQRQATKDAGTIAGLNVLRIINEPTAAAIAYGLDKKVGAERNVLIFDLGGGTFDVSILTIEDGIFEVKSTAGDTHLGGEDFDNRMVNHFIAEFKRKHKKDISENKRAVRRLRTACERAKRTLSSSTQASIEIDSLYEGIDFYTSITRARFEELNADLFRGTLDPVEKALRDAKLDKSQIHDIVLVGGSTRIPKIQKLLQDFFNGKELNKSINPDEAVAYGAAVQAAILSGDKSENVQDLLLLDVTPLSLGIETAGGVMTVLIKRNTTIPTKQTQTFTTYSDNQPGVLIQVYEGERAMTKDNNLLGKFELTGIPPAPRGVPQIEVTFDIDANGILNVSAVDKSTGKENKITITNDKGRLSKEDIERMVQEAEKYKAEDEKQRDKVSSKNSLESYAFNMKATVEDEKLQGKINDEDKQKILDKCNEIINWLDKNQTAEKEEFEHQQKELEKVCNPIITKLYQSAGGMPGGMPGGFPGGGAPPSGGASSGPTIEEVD"}, "KIAA0564": {"molecular_target": "T14, KIAA0564 (Homo sapiens, UniProt A3KMH1)", "T14 construct": "to get the native cell lysate; endogenous in cells; host or cells: A375", "details": "KIAA0564, SEQ ID NO: 113, ATP BS"}, "MCCC1": {"molecular_target": "T15, MCCC1 (Homo sapiens, UniProt Q96RQ3)", "T15 construct": "to get the native cell lysate; endogenous in cells; host or cells: A375", "T15 sequence (Q96RQ3 48-725 limits assumed)": "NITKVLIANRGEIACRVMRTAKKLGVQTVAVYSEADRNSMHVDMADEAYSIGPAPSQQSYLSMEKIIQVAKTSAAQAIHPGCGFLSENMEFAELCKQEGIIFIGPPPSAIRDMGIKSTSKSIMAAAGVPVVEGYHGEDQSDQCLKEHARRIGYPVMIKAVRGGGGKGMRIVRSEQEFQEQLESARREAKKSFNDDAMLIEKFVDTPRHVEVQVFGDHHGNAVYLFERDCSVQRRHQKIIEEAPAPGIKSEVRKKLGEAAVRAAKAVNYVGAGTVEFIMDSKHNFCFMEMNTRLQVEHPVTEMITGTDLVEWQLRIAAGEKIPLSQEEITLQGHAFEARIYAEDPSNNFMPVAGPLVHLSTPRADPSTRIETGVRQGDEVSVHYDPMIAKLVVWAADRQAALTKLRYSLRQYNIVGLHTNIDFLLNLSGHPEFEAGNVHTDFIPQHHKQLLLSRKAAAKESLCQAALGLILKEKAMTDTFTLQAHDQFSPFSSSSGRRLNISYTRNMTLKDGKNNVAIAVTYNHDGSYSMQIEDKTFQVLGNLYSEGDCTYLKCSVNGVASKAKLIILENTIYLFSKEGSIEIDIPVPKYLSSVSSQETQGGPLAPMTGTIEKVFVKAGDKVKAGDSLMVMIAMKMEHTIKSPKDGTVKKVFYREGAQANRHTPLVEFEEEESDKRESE", "T15 sequence (Q9HCC0 23-563 partner)": "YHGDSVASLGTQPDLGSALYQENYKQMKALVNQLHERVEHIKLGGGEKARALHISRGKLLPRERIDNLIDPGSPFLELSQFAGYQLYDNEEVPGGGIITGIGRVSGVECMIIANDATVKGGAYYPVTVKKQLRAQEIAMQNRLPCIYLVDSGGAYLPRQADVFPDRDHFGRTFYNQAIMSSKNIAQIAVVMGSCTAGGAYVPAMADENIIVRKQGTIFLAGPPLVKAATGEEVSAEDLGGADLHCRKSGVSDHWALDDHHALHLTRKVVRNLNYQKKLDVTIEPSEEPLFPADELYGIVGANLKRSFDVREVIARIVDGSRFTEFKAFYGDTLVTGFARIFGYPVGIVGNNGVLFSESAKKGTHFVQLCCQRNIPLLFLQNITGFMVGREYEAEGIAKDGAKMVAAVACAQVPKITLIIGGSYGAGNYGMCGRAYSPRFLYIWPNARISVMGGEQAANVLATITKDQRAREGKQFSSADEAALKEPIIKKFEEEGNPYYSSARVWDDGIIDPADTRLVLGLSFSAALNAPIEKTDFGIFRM"}, "MTHFD1L": {"molecular_target": "T16, MTHFD1L (Homo sapiens, UniProt Q6UB35)", "T16 construct": "to get the native cell lysate; endogenous in cells; host or cells: A375", "details": "SEQ ID NO: 126, ATP BS"}, "MYO1E": {"molecular_target": "T17, MYO1E (Homo sapiens, UniProt Q12965)", "T17 construct": "to get the native cell lysate; endogenous in cells; host or cells: A375", "details": "SEQ ID NO: 128, ATP BS"}, "NME3": {"molecular_target": "T18, NME3 (Homo sapiens, UniProt Q13232)", "T18 construct": "to get the native cell lysate; endogenous in cells; host or cells: A375", "details": "NME3, SEQ ID NO: 134, ATP BS"}, "NMNAT3": {"molecular_target": "T19, NMNAT3 (Homo sapiens, UniProt Q96T66)", "T19 construct": "to get the native cell lysate; endogenous in cells; host or cells: A375", "details": "NMNAT3, SEQ ID NO: 135, ATP BS"}, "NRK1": {"molecular_target": "T20, NRK1 (Homo sapiens, UniProt Q9NWW6)", "T20 construct": "to get the native cell lysate; endogenous in cells; host or cells: A375", "details": "NRK1, SEQ ID NO: 137, ATP BS"}, "PFKFB2": {"molecular_target": "T21, PFKFB2 (Homo sapiens, UniProt O60825)", "T21 construct": "to get the native cell lysate; endogenous in cells; host or cells: A375 cell lysate", "details": "PFKFB2, SEQ ID NO: 158, ATP BS"}, "PRPS1": {"molecular_target": "T22, PRPS1 (Homo sapiens, UniProt P60891)", "T22 construct": "endogenous in cells; host or cells: A375 cell lysate", "details": "PRPS1, SEQ ID NO: 171, ATP BS"}, "PSMD9": {"molecular_target": "PSMD9 (Homo sapiens, UniProt O00233)", "details": "PSMD9, SEQ ID NO: 179, ATP BS; read-out: Inhibition (%) by 1 μM Z36-MP5"}, "RFC1": {"molecular_target": "T23, RFC1 (Homo sapiens, UniProt P35251)", "T23 construct": "to get the native cell lysate; endogenous in cells; host or cells: A375 cell lysate", "details": "RFC1, SEQ ID NO: 183, ATP BS"}, "RFC2": {"molecular_target": "T24, RFC2 (Homo sapiens, UniProt P35250)", "T24 construct": "to get the native cell lysate; endogenous in cells; host or cells: A375 cell lysate", "details": "RFC2, SEQ ID NO: 184, ATP BS"}, "TOR4A": {"molecular_target": "T25, TOR4A (Homo sapiens, UniProt Q9NXH8)", "T25 construct": "to get the native cell lysate; endogenous in cells; host or cells: A375 cell lysate", "details": "SEQ ID NO: 207, ATP BS"}, "TRAP1": {"molecular_target": "T26, TRAP1 (Homo sapiens, UniProt Q12931)", "T26 construct": "to get the native cell lysate; endogenous in cells; host or cells: A375 cell lysate", "T26 sequence (Q12931 60-704)": "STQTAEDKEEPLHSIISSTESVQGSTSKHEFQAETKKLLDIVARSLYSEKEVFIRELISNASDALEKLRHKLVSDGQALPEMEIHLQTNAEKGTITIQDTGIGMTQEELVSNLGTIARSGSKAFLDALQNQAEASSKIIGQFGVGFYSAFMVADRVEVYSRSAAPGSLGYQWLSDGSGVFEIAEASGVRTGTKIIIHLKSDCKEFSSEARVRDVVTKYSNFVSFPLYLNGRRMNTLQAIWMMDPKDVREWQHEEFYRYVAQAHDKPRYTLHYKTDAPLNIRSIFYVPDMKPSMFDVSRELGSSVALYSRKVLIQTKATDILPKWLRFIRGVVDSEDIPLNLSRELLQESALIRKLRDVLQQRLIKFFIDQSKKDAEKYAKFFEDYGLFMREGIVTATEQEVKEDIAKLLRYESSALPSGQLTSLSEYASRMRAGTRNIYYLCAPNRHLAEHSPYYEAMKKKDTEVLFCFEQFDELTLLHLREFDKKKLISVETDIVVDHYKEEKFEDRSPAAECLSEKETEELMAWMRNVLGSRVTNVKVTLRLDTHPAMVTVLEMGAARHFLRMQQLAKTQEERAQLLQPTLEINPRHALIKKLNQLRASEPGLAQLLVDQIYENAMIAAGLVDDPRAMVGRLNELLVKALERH"}, "TTL": {"molecular_target": "T27, TTL (Homo sapiens, UniProt Q8NG68)", "T27 construct": "to get the native cell lysate; endogenous in cells; host or cells: A375 cell lysate", "T27 sequence (Q8NG68 whole entry)": "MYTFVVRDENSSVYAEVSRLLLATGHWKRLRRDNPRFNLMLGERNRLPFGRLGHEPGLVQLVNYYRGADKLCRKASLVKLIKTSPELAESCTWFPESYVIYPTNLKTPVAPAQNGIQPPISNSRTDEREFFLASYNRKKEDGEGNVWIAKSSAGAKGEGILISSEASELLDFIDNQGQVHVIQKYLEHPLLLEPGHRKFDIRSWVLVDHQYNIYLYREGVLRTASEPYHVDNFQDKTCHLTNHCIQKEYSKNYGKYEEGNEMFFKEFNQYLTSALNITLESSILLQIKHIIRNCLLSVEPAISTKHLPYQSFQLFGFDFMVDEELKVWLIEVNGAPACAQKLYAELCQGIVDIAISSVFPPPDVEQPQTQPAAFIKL"}, "UBA5": {"molecular_target": "T28, UBA5 (Homo sapiens, UniProt Q9GZZ9)", "T28 construct": "to get the native cell lysate; endogenous in cells; host or cells: A375 cell lysate", "details": "UBA5, SEQ ID NO: 221, ATP BS"}}, "data": [{"smiles": "Cn1c(=O)[nH]c2ccc(-c3cccc(C(=O)NC4CCn5ccnc5C4)c3)cc21", "note": "(stereo not drawn) [Z36-MP5, 3-(3-methyl-2-oxo-2,3-dihydro-1H-benzo[d]imidazol-5-yl)-N-(5,6,7,8-tetrahydroimidazo[1,2-a]pyridin-7-yl)benzamide]", "values": [{"measurement": "Inhibition (%) by 1 μM Z36-MP5", "setting": "AARS", "result": "−29.97", "unit": "%"}, {"measurement": "Inhibition (%) by 1 μM Z36-MP5", "setting": "ABCB10", "result": "−6.14", "unit": "%"}, {"measurement": "Inhibition (%) by 1 μM Z36-MP5", "setting": "ABCB7", "result": 0.34, "unit": "%"}, {"measurement": "Inhibition (%) by 1 μM Z36-MP5", "setting": "ABCC1; ABCC1, SEQ ID NO: 5, ATP BS", "result": "−0.23", "unit": "%"}, {"measurement": "Inhibition (%) by 1 μM Z36-MP5", "setting": "ABCC1; ABCC1, SEQ ID NO: 6, ATP BS", "result": "−7.84", "unit": "%"}, {"measurement": "Inhibition (%) by 1 μM Z36-MP5", "setting": "ACACB", "result": "−1.87", "unit": "%"}, {"measurement": "Inhibition (%) by 1 μM Z36-MP5", "setting": "AK2", "result": "−4.75", "unit": "%"}, {"measurement": "Inhibition (%) by 1 μM Z36-MP5", "setting": "AK4", "result": "−9.19", "unit": "%"}, {"measurement": "Inhibition (%) by 1 μM Z36-MP5", "setting": "ATIC", "result": 4.08, "unit": "%"}, {"measurement": "Inhibition (%) by 1 μM Z36-MP5", "setting": "BAT1, DDX39", "result": "−10.93", "unit": "%"}, {"measurement": "Inhibition (%) by 1 μM Z36-MP5", "setting": "DDX39", "result": "−8.90", "unit": "%"}, {"measurement": "Inhibition (%) by 1 μM Z36-MP5", "setting": "ENPP1", "result": 8.04, "unit": "%"}, {"measurement": "Inhibition (%) by 1 μM Z36-MP5", "setting": "HSP90AA", "result": "−1.29", "unit": "%"}, {"measurement": "Inhibition (%) by 1 μM Z36-MP5", "setting": "HSPA5; HSPA5, SEQ ID NO: 104, ATP BS", "result": "−16.08", "unit": "%"}, {"measurement": "Inhibition (%) by 1 μM Z36-MP5", "setting": "HSPA5; HSPA5, SEQ ID NO: 105, ATP BS", "result": "−7.84", "unit": "%"}, {"measurement": "Inhibition (%) by 1 μM Z36-MP5", "setting": "HSPA8; HSPA8, SEQ ID NO: 106, ATP BS", "result": 3.27, "unit": "%"}, {"measurement": "Inhibition (%) by 1 μM Z36-MP5", "setting": "HSPA8; HSPA8, SEQ ID NO: 107, ATP BS", "result": 4.45, "unit": "%"}, {"measurement": "Inhibition (%) by 1 μM Z36-MP5", "setting": "KIAA0564", "result": 11.07, "unit": "%"}, {"measurement": "Inhibition (%) by 1 μM Z36-MP5", "setting": "MCCC1; MCCC1, SEQ ID NO: 116, ATP BS", "result": "−6.46", "unit": "%"}, {"measurement": "Inhibition (%) by 1 μM Z36-MP5", "setting": "MCCC1; MCCC1, SEQ ID NO: 117, ATP BS", "result": 4.45, "unit": "%"}, {"measurement": "Inhibition (%) by 1 μM Z36-MP5", "setting": "MTHFD1L", "result": 1.16, "unit": "%"}, {"measurement": "Inhibition (%) by 1 μM Z36-MP5", "setting": "MYO1E", "result": 4.66, "unit": "%"}, {"measurement": "Inhibition (%) by 1 μM Z36-MP5", "setting": "NME3", "result": 1.91, "unit": "%"}, {"measurement": "Inhibition (%) by 1 μM Z36-MP5", "setting": "NMNAT3", "result": 9.62, "unit": "%"}, {"measurement": "Inhibition (%) by 1 μM Z36-MP5", "setting": "NRK1", "result": 0.34, "unit": "%"}, {"measurement": "Inhibition (%) by 1 μM Z36-MP5", "setting": "PFKFB2", "result": 14.74, "unit": "%"}, {"measurement": "Inhibition (%) by 1 μM Z36-MP5", "setting": "PRPS1", "result": "−22.26", "unit": "%"}, {"measurement": "inhibition at 1 µM", "setting": "PSMD9", "result": 2.13, "unit": "%"}, {"measurement": "Inhibition (%) by 1 μM Z36-MP5", "setting": "RFC1", "result": "−12.52", "unit": "%"}, {"measurement": "Inhibition (%) by 1 μM Z36-MP5", "setting": "RFC2", "result": 1.52, "unit": "%"}, {"measurement": "Inhibition (%) by 1 μM Z36-MP5", "setting": "TOR4A", "result": 5.38, "unit": "%"}, {"measurement": "Inhibition (%) by 1 μM Z36-MP5", "setting": "TRAP1; TRAP1, SEQ ID NO: 209, ATP BS", "result": "−10.78", "unit": "%"}, {"measurement": "Inhibition (%) by 1 μM Z36-MP5", "setting": "TRAP1; TRAP1, SEQ ID NO: 210, ATP BS", "result": "−11.57", "unit": "%"}, {"measurement": "Inhibition (%) by 1 μM Z36-MP5", "setting": "TTL; SEQ ID NO: 213, ATP BS", "result": 10.59, "unit": "%"}, {"measurement": "Inhibition (%) by 1 μM Z36-MP5", "setting": "TTL; SEQ ID NO: 214, ATP BS", "result": "−14.46", "unit": "%"}, {"measurement": "Inhibition (%) by 1 μM Z36-MP5", "setting": "UBA5", "result": "−12.85", "unit": "%"}]}]}
